From patent US20110033393A1, “Hydrazone Compounds and Their Use” (priority 2009, published 2011)

Tested on: GLUTag cells
Test: GLP-1 release using GLUTag cells (Assay 1)
Assay type: cell-based, mouse
Protocol: Mouse GLUTag cells are a native intestinal cell line which expresses TRPM5. The cell line was obtained from Dr. Daniel J. Drucker in the Division of Endocrinology, Department of Medicine, at University of Toronto, and grown in Invitrogen Dulbecco's Modified Eagle's Medium (DMEM) high glucose (Cat#: 11995) with 10% fetal bovine serum (FBS) and 1× penn/strep antibiotic mix in a 37° C. incubator with 5% CO2.
Assay 1: All reagents and media were pre-warmed to room temperature prior to the beginning of the experiment.
Seeding of Cell Plate: BD 96-well Matrigel-coated plates (Fisher, Cat #: 08-774-166) were rehydrated using 100 μL of plating media (Invitrogen Cat #: 31985) OPTI-Modified Eagle's Medium (MEM) with 10% FBS and 1× penn/strep antibiotic mix and incubated for 30 minutes in a 37° C. incubator and 5% CO2. The rehydration media was aspirated and GLUTag cells were plated at 100 ul per well at a density of 7.5×10^5 cells/ml. The plates were then incubated overnight in a 37° C. incubator and 5% CO2.
The following protocol utilized the Millipore GLP-1 ELISA Kit (Cat. #: EGLP-35K) to analyze GLP-1 secretion from GLUTag cells in the presence of TRPM5 inhibitors/enhancers and glucose.
ELISA Assay Day 1: Stock solutions and dilution plates of TRPM5 inhibitors or enhancers were prepared. […]

Q: `Cc1cc(/C=N/NC(=O)C2CC2c2ccccc2)cc2cccnc12` (racemic) [Example 10, trans-N′-((8-Methylquinolin-6-yl)methylene)-2-phenylcyclopropanecarbohydrazide] was tested. Which GLP-1 secretion (in the presence of 0.1 mM glucose) did it give?
A: is not observed

Q: What about the GLP-1 secretion (in the presence of 0.3 mM glucose) of the same molecule?
A: dose-dependent increase of GLP-1 secretion
